Data on 93 sequences can be found in the OligoGym collection.

“And” between values parts separate entries of the source, which are not always exact repeats. Equal values may be shown once. After the bases stand the sugars from the 5' end (letter, count) and the backbone: PS all phosphorothioate, else s phosphorothioate and o phosphodiester by linkage. Methylation of C is not given here. e = 2'-O-(2-methoxyethyl) (MOE); k = constrained ethyl (cEt); d = 2'-deoxy (DNA)

The target in the first series is IRF4. The note with it: ASO, MM.1R, 0.074 µM.
With “CAGTGATGTCAGGTTT (sugars kkkddddddddkekek, PS)”, the target mRNA inhibition was 19%.
Same read-out and setting: for GTGATGTCAGGTTTTC (sugars k3 d10 k3, PS) the value was 11%.

Staying with this series, now noted: ASO, MM.1R, 0.222 µM.
Consider “CAGTGATGTCAGGTTT (sugars kkkddddddddkekek, PS)”, for which the target mRNA inhibition turned out to be 40%.
Consider GTGATGTCAGGTTTTC (sugars k3 d10 k3, PS), for which the target mRNA inhibition worked out at 38%.

The same series, now with this note: ASO, MM.1R, 0.666 µM.
As to “CAGTGATGTCAGGTTT (sugars kkkddddddddkekek, PS)”, the target mRNA inhibition came to 56%.
The same measure, in the same setting: for GTGATGTCAGGTTTTC (sugars k3 d10 k3, PS) the value was 66%.

The series is the same for the next values; noted with them: ASO, MM.1R, 1 µM.
As to ACAGAGACGCGGTGAG (sugars k3 d10 k3, PS), the target mRNA inhibition stood at 14%.
Same read-out and setting: for ATTCAATGCACCCCCC (sugars k3 d10 k3, PS) the value was 2%.
In the case of GCGAGTTGGCACAATT (sugars k3 d10 k3, PS), the target mRNA inhibition is 27% and 37%.
The same measure, in the same setting: for ATCCCTTATTAGACTG (sugars k3 d10 k3, PS) the value was -7%; for GGCCACCGCACGCAAG (sugars k3 d10 k3, PS), -24%.
Take “GTAGTATGAGAAACGG (sugars kddddddddddkekek, PS)”: the target mRNA inhibition amounted to 46%.
On the same count and under the same terms, the same measure for “TGGGATTATATACTGG (sugars kdddddddddkekeke, PS)”: 40%; for “GTGATAGCTGAGCTGA (sugars kkdddddddddekeke, PS)”: 24%; for ATGAACCCTAAGTTTA (sugars k3 d10 k3, PS): -4%.
The same measure, in the same setting: for “ACTGCTTGAGGTTTTC (sugars kddddddddddkekek, PS)” the value was 22%; for “CTGTTACCGATGCTTC (sugars k2 d9 e3 k2, PS)”, 64% and 56%; for GAGAGACGAAAACAGC (sugars k3 d10 k3, PS), 5%.
Turning to “AGTATGAGAAACGGCC (sugars k2 d9 e3 k2, PS)”, the target mRNA inhibition amounted to 16%.
On to CAGGAACTGACCTAAC (sugars k3 d10 k3, PS), for which the target mRNA inhibition is -7%.
With “AAGTTCATGTAAAGTC (sugars kddddddddddkekek, PS)”, the target mRNA inhibition is 14% and 6%.
The same measure, in the same setting: for ACACGCCCGACCCTCC (sugars k3 d10 k3, PS) the value was 4%.
As for GGCGCGGACGCACGGA (sugars k3 d10 k3, PS), the target mRNA inhibition was found to be 10%.
With “GACAGTGACTTGCATC (sugars kkdddddddddkekek, PS)”, the target mRNA inhibition turned out to be 5%.
Turning to GTCGCGCAAGTCTACA (sugars k3 d10 k3, PS), the target mRNA inhibition was 4% and 16%.
Same read-out and setting: the same measure for TCCACTACCATATTGG (sugars k3 d10 k3, PS): -29%.
Same read-out and setting: the same measure for “CAGTGATGTCAGGTTT (sugars kkkddddddddkekek, PS)”: 56%; for “AGTGACTTGCATCCAT (sugars kkdddddddddkdkdk, PS)”: 22%; for CTTAGTCAGAATCTGT (sugars k3 d10 k3, PS): 1%.
In the case of “TACTGTTACCGATGCT (sugars kdddddddddkekeke, PS)”, the target mRNA inhibition turned out to be 18%.
On the same count and under the same terms, the same measure for “GTTGGCTGGTCTTTGT (sugars kkdddddddddkekek, PS)”: 62%; for “CAAGCAGTGATGTCAG (sugars kdddddddddkekeke, PS)”: 10% and 12%.
Same read-out and setting: for GTGATGTCAGGTTTTC (sugars k3 d10 k3, PS) the value was 66%.
Still for that read-out and setting: for AAATCACGAGGTTGCC (sugars k3 d10 k3, PS) the value was 21%; for “GCATTTTATCATCCGA (sugars kkdddddddddkdkdk, PS)”, 16%.
In the case of “TTATGTTAGCCAATTC (sugars k2 d9 e3 k2, PS)”, the target mRNA inhibition is 14% and 9%.
On the same count and under the same terms, the same measure for “TTGGTTGGCTGGTCTT (sugars k2 d9 e3 k2, PS)”: 50%.
Same read-out and setting: for “TAGTATGAGAAACGGC (sugars k2 d9 e3 k2, PS)” the value was 37%.
On the same count and under the same terms, the same measure for “GTGTCTAAAGTCCCAT (sugars kddddddddddkekek, PS)”: 34% and 23%; for TCACTACCTGCAGCCA (sugars k3 d10 k3, PS): 6%.

Staying with this series, now noted: ASO, MM.1R, 2 µM.
Regarding “CAGTGATGTCAGGTTT (sugars kkkddddddddkekek, PS)”, the target mRNA inhibition was determined as 74%.
As for GTGATGTCAGGTTTTC (sugars k3 d10 k3, PS), the target mRNA inhibition came out at 90%.

Still in this series, the particulars now being: ASO, SK-MEL-28, 4 µM.
Consider ACTGACCTTTACTTCA (sugars k3 d10 k3, PS), for which the target mRNA inhibition amounted to 43%.
Turning to GGCCGATCATCAACTT (sugars k3 d10 k3, PS), the target mRNA inhibition was 7%.
The same measure, in the same setting: the same measure for CATTCCCTAGGTCATA (sugars k3 d10 k3, PS): 54%; for GCTACATTTCTTATGC (sugars k3 d10 k3, PS): 20%; for CCTGGCGGCCTCCACG (sugars k3 d10 k3, PS): -31%.
On the same count and under the same terms, for CAAAACCAGTACAGTC (sugars k3 d10 k3, PS) the value was 49%.
Still for that read-out and setting: for CCGGAGGCCGCCGTGA (sugars k3 d10 k3, PS) the value was 13%.
Regarding CTCCAAAGCATAGAGT (sugars k3 d10 k3, PS), the target mRNA inhibition was 23%.
Same read-out and setting: the same measure for GGCAAGTTTTCTCTGT (sugars k3 d10 k3, PS): 36%; for GAAACGAGCCAGTGCA (sugars k3 d10 k3, PS): 52%.
On to GACCAACTGGAAAACC (sugars k3 d10 k3, PS), for which the target mRNA inhibition was determined as 56%.
As to AGTCACCTGGAATCTT (sugars k3 d10 k3, PS), the target mRNA inhibition was determined as 47%.
On the same count and under the same terms, the same measure for GAGAAGCATATTCCAA (sugars k3 d10 k3, PS): 57%; for CAGACCTTATGCTTGG (sugars k4 d8 k4, PS): 26%; for TTGCATAGGCATCCTT (sugars k3 d10 k3, PS): 47%.
The same measure, in the same setting: for GTTTACACTGGATCTG (sugars k3 d10 k3, PS) the value was 61%.
Same read-out and setting: the same measure for ATATATGACGACTTAA (sugars k3 d10 k3, PS): 6%; for CAAACTCCTCAGGGAA (sugars k3 d10 k3, PS): 23%; for TCCCACGAAGGGCAGT (sugars k3 d10 k3, PS): 6%.
Take ATCTAAGGCAAGCTGA (sugars k3 d10 k3, PS): the target mRNA inhibition is 37%.
Still for that read-out and setting: for GAGCAAACCCTGCACT (sugars k3 d10 k3, PS) the value was -16%.
Same read-out and setting: the same measure for CTGAAGCTTAGTTATC (sugars k3 d10 k3, PS): 38%; for GGTTAAATATTCTTCA (sugars k3 d10 k3, PS): 48%.
Same read-out and setting: the same measure for TTGGCTCCTTTTTTGG (sugars k3 d10 k3, PS): 13%; for TCTCCCACACCAGCCC (sugars k4 d8 k4, PS): 25%; for TTCAACTTGTGACCCA (sugars k3 d10 k3, PS): 49%.
For the sequence TAGCATGGATCCTGAG (sugars k3 d10 k3, PS), the target mRNA inhibition is 0%.
The same measure, in the same setting: for TGCATAACACGGTGTT (sugars k3 d10 k3, PS) the value was 38%; for TAGTCGACAGCTAAAG (sugars k3 d10 k3, PS), 46%.
Same read-out and setting: for TGGAGAAACGAGCCAG (sugars k3 d10 k3, PS) the value was 38%; for ATTCATGATGTATACC (sugars k3 d10 k3, PS), 62%.
Still for that read-out and setting: the same measure for CGGCACAGGCGCGGAC (sugars k3 d10 k3, PS): 4%; for GGTACATGGCAGTGGA (sugars k3 d10 k3, PS): 87%.
Take TGCATCTATAAGATGT (sugars k3 d10 k3, PS): the target mRNA inhibition was 32%.
On the same count and under the same terms, the same measure for AGTTTGTGAAGCATCC (sugars k3 d10 k3, PS): 69%; for ACTCACTGGTTCTGAA (sugars k3 d10 k3, PS): 14%; for GAAGGGAACAGATAGT (sugars k3 d10 k3, PS): 17%.
Same read-out and setting: for GGCGACCCCGTCGCAG (sugars k3 d10 k3, PS) the value was 30%.
Still for that read-out and setting: for GTTTACTAACTGGCTT (sugars k3 d10 k3, PS) the value was 27%.
Regarding TGCAAGCCTCATTCAC (sugars k3 d10 k3, PS), the target mRNA inhibition is 42%.
As to TGTGTCAAAGAGCTTG (sugars k3 d10 k3, PS), the target mRNA inhibition was found to be 22%.
Still for that read-out and setting: the same measure for GACCAATTTATGCCAT (sugars k3 d10 k3, PS): 38%; for GCGGACACGCCCGACC (sugars k3 d10 k3, PS): 15%; for GCACTGCATGAAAGTG (sugars k3 d10 k3, PS): 40%.
The same measure, in the same setting: for CCAATAGTCTAGCTGG (sugars k3 d10 k3, PS) the value was 19%.
On the same count and under the same terms, the same measure for GTTGTAGTCCTGCTTG (sugars k3 d10 k3, PS): 22%.
As for CAGAGTTGTTCCACCC (sugars k3 d10 k3, PS), the target mRNA inhibition stood at 62%.
On the same count and under the same terms, for CAGAACGAGGTAAATC (sugars k3 d10 k3, PS) the value was 59%; for GGTAATTTAGGCCAAT (sugars k3 d10 k3, PS), 35%.
With TATAGAATTAGGTGCT (sugars k3 d10 k3, PS), the target mRNA inhibition is 40%.
Still for that read-out and setting: the same measure for GGACATATTTGCTTTG (sugars k3 d10 k3, PS): 32%.
Still for that read-out and setting: the same measure for GTATTTCATAGCTAGT (sugars k3 d10 k3, PS): 69%; for TTAAAATATCGCCCAT (sugars k3 d10 k3, PS): 32%.
Take AAACGGACTGGAACAT (sugars k3 d10 k3, PS): the target mRNA inhibition was 7%.
Same read-out and setting: for GTAAACACATCACTTG (sugars k3 d10 k3, PS) the value was 51%; for TAGTGTCGCCATGGCT (sugars k3 d10 k3, PS), 69%.
On the same count and under the same terms, the same measure for TAAAGAGCGCATTTCA (sugars k3 d10 k3, PS): 41%; for ACAGGGTGCTCCTGAG (sugars k3 d10 k3, PS): 23%; for GAAGAGTTGGCGGTGG (sugars k3 d10 k3, PS): 15%.
